We go through one molecule from ChEMBL document CHEMBL5518202, “Discovery of a Potent Nicotinamide Phosphoribosyltransferase Activator for Improving Aging-associated Dysfunctions” (J Med Chem, 2024).

The target in this assay is Nicotinamide phosphoribosyltransferase (Homo sapiens, UniProt P43490). The assay is described as follows: Binding affinity to NAMPT (unknown origin) assessed as dissociation constant incubated for 30 mins by microscale thermophoresis analysis.
Sequence of Nicotinamide phosphoribosyltransferase (P43490 whole entry): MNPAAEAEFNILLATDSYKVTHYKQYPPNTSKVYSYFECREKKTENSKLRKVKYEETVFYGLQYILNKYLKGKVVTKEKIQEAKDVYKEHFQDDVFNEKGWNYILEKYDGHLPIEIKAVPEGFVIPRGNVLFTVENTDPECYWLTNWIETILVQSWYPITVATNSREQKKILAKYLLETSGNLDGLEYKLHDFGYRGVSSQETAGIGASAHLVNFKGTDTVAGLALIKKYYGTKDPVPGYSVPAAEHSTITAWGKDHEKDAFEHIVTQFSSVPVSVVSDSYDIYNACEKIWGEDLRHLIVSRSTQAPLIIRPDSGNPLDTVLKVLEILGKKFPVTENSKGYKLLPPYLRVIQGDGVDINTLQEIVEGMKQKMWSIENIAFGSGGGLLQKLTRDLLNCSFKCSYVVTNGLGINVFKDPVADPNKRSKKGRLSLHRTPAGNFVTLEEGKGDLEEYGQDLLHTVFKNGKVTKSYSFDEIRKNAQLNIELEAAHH

The term Kd denotes the free concentration of one partner at which half of the binding sites on the other are occupied at equilibrium, for simple one-to-one binding. As to `O=C(NCc1ccncc1)Nc1ccc(S(=O)(=O)N2CC3CCC(C2)O3)cc1`, the Kd is 6.82 µM.
